Key:
Assay in all cases: relative viability (nuclei count vs DMSO), 5 days (fraction); higher = more cells survive
[1] = tested on: NCI-H596
In short: (§1)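 Medians of duplicate plates are given as relative viability. That measure is the nuclei count in treated wells divided by the count in vehicle wells. Counts were taken on 4× images of lung cancer cell lines in 1536-well plates, 5 days after pin-tool dosing the day after seeding with one drug alone or a fixed anchor-drug dose plus five library-drug doses (not always all listed) in √10 steps.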

[2] = tested on: BEN
In short: as §1

[3] = tested on: NCI-H1944
In short: as §1

[4] = tested on: 201T
In short: as §1

[5] = tested on: NCI-H1792
In short: as §1

[6] = tested on: NCI-H1650
In short: as §1

[7] = tested on: NCI-H520
In short: as §1

[8] = tested on: NCI-H460
In short: as §1

[9] = tested on: NCI-H2087
In short: as §1

[10] = tested on: NCI-H650
In short: as §1

[11] = tested on: NCI-H2023
In short: as §1

[12] = tested on: NCI-H727
In short: as §1

[13] = tested on: H3255
In short: as §1

[14] = tested on: LC-2-ad
In short: as §1

[15] = tested on: NCI-H441
In short: as §1

[16] = tested on: NCI-H1651
In short: as §1

[17] = tested on: LCLC-97TM1
In short: as §1

[18] = tested on: CAL-12T
In short: as §1

[19] = tested on: PC-3 [JPC-3]
In short: as §1

[20] = tested on: NCI-H661
In short: as §1

[21] = tested on: NCI-H1915
In short: as §1

[22] = tested on: A-427
In short: as §1

In the case of `CC1(C)CCC(c2ccc(Cl)cc2)=C(CN2CCN(c3ccc(C(=O)NS(=O)(=O)c4ccc(N[C@H](CCN5CCOCC5)CSc5ccccc5)c(S(=O)(=O)C(F)(F)F)c4)cc3)CC2)C1` [Navitoclax] + CC(=O)Nc1cccc(-n2c(=O)n(C3CC3)c(=O)c3c(Nc4ccc(I)cc4F)n(C)c(=O)c(C)c32)c1 [Trametinib] (partner 0.02 µM), the relative viability ([1]; first compound 0.005 µM) is reported as 0.796, the relative viability ([1]; first compound 0.01581 µM) is reported as 1.22 and the relative viability ([1]; first compound 0.05 µM) is reported as 0.693. For the same compound, the relative viability ([1]; first compound 0.1581 µM) was 0.79, the relative viability ([1]; first compound 0.5 µM) was 0.776 and the relative viability ([2]; first compound 0.005 µM) was 1.07. For the same compound, the relative viability ([2]; first compound 0.01581 µM) was 1.18, the relative viability ([2]; first compound 0.05 µM) was 0.94 and the relative viability ([2]; first compound 0.1581 µM) was 1.05. For the same compound, the relative viability ([2]; first compound 0.5 µM) was 0.669, the relative viability ([3]; first compound 0.005 µM) was 0.414 and the relative viability ([3]; first compound 0.01581 µM) was 0.407. It also gave a relative viability ([3]; first compound 0.1581 µM) of 0.422, a relative viability ([3]; first compound 0.5 µM) of 0.373 and a relative viability ([4]; first compound 0.005 µM) of 0.715. For the same compound, the relative viability ([4]; first compound 0.01581 µM) was 0.784, the relative viability ([4]; first compound 0.05 µM) was 0.741 and the relative viability ([4]; first compound 0.1581 µM) was 0.7. The relative viability ([4]; first compound 0.5 µM) was 0.726, the relative viability ([5]; first compound 0.005 µM) was 0.458 and the relative viability ([5]; first compound 0.01581 µM) was 0.631. For the same compound, the relative viability ([5]; first compound 0.1581 µM) was 0.376, the relative viability ([5]; first compound 0.5 µM) was 0.388 and the relative viability ([6]; first compound 0.005 µM) was 0.646. The relative viability ([6]; first compound 0.01581 µM) was 0.723, the relative viability ([6]; first compound 0.05 µM) was 0.489 and the relative viability ([6]; first compound 0.1581 µM) was 0.439. For the same compound, the relative viability ([6]; first compound 0.5 µM) was 0.45, the relative viability ([7]; first compound 0.005 µM) was 0.673 and the relative viability ([7]; first compound 0.01581 µM) was 0.653. It also gave a relative viability ([7]; first compound 0.05 µM) of 0.631, a relative viability ([7]; first compound 0.1581 µM) of 0.603 and a relative viability ([7]; first compound 0.5 µM) of 0.693. The relative viability ([8]; first compound 0.005 µM) was 0.135, the relative viability ([8]; first compound 0.01581 µM) was 0.237 and the relative viability ([8]; first compound 0.05 µM) was 0.153. For the same compound, the relative viability ([8]; first compound 0.1581 µM) was 0.188, the relative viability ([8]; first compound 0.5 µM) was 0.215 and the relative viability ([9]; first compound 0.005 µM) was 0.177. The relative viability ([9]; first compound 0.01581 µM) was 0.194, the relative viability ([9]; first compound 0.1581 µM) was 0.145 and the relative viability ([9]; first compound 0.5 µM) was 0.151. It also gave a relative viability ([10]; first compound 0.005 µM) of 0.907, a relative viability ([10]; first compound 0.01581 µM) of 1.2 and a relative viability ([10]; first compound 0.05 µM) of 0.872. It also gave a relative viability ([10]; first compound 0.1581 µM) of 1.09, a relative viability ([10]; first compound 0.5 µM) of 0.878 and a relative viability ([11]; first compound 0.005 µM) of 0.556. The relative viability ([11]; first compound 0.01581 µM) was 0.724, the relative viability ([11]; first compound 0.05 µM) was 0.554 and the relative viability ([11]; first compound 0.1581 µM) was 0.5. For the same compound, the relative viability ([11]; first compound 0.5 µM) was 0.547, the relative viability ([12]; first compound 0.005 µM) was 0.406 and the relative viability ([12]; first compound 0.01581 µM) was 0.393. For the same compound, the relative viability ([12]; first compound 0.05 µM) was 0.378, the relative viability ([12]; first compound 0.1581 µM) was 0.399 and the relative viability ([12]; first compound 0.5 µM) was 0.403. For the same compound, the relative viability ([13]; first compound 0.005 µM) was 0.529, the relative viability ([13]; first compound 0.01581 µM) was 0.7 and the relative viability ([13]; first compound 0.05 µM) was 0.612. The relative viability ([13]; first compound 0.1581 µM) was 0.59, the relative viability ([13]; first compound 0.5 µM) was 0.582 and the relative viability ([14]; first compound 0.005 µM) was 0.861. It also gave a relative viability ([14]; first compound 0.01581 µM) of 0.906, a relative viability ([14]; first compound 0.05 µM) of 0.813 and a relative viability ([14]; first compound 0.1581 µM) of 0.902. The relative viability ([14]; first compound 0.5 µM) was 0.823, the relative viability ([15]; first compound 0.005 µM) was 0.534 and the relative viability ([15]; first compound 0.01581 µM) was 0.616. It also gave a relative viability ([15]; first compound 0.05 µM) of 0.349, a relative viability ([15]; first compound 0.1581 µM) of 0.448 and a relative viability ([15]; first compound 0.5 µM) of 0.553. The relative viability ([16]; first compound 0.005 µM) was 0.822, the relative viability ([16]; first compound 0.01581 µM) was 0.921 and the relative viability ([16]; first compound 0.05 µM) was 0.61. It also gave a relative viability ([16]; first compound 0.1581 µM) of 0.771, a relative viability ([16]; first compound 0.5 µM) of 0.864 and a relative viability ([17]; first compound 0.005 µM) of 0.184. It also gave a relative viability ([17]; first compound 0.01581 µM) of 0.232, a relative viability ([17]; first compound 0.05 µM) of 0.186 and a relative viability ([17]; first compound 0.1581 µM) of 0.211. It also gave a relative viability ([17]; first compound 0.5 µM) of 0.189, a relative viability ([18]; first compound 0.005 µM) of 0.348 and a relative viability ([18]; first compound 0.01581 µM) of 0.373. The relative viability ([18]; first compound 0.05 µM) was 0.351, the relative viability ([18]; first compound 0.1581 µM) was 0.331 and the relative viability ([18]; first compound 0.5 µM) was 0.311. The relative viability ([19]; first compound 0.005 µM) was 0.674, the relative viability ([19]; first compound 0.01581 µM) was 0.714 and the relative viability ([19]; first compound 0.05 µM) was 0.734. For the same compound, the relative viability ([19]; first compound 0.1581 µM) was 0.668, the relative viability ([19]; first compound 0.5 µM) was 0.603 and the relative viability ([20]; first compound 0.005 µM) was 0.516. It also gave a relative viability ([20]; first compound 0.01581 µM) of 0.702, a relative viability ([20]; first compound 0.05 µM) of 0.551 and a relative viability ([20]; first compound 0.1581 µM) of 0.533. For the same compound, the relative viability ([20]; first compound 0.5 µM) was 0.538, the relative viability ([21]; first compound 0.005 µM) was 0.287 and the relative viability ([21]; first compound 0.01581 µM) was 0.327. For the same compound, the relative viability ([21]; first compound 0.05 µM) was 0.297, the relative viability ([21]; first compound 0.1581 µM) was 0.314 and the relative viability ([21]; first compound 0.5 µM) was 0.331. It also gave a relative viability ([22]; first compound 0.005 µM) of 0.724, a relative viability ([22]; first compound 0.01581 µM) of 0.714 and a relative viability ([22]; first compound 0.05 µM) of 0.624. The relative viability ([22]; first compound 0.1581 µM) was 0.599 and the relative viability ([22]; first compound 0.5 µM) was 0.652.

Source: the supplement of paper PMC10307832
